Measurements taken from ChEMBL document CHEMBL3745645, “Synthesis, in vitro antitumor activity, dihydrofolate reductase inhibition, DNA intercalation and structure-activity relationship studies of 1,3,5-triazine analogues” (Bioorg Med Chem Lett, 2016).
Active and inactive are the calls of the source. The calls are words filed in the database; no cut-off is given here.

Columns and labels:
Type in all cases: functional
[1] = Cytotoxicity against human Caki1 cells at 10 uM after 48 hrs by SRB assay; conditions: CAKI-1, 48 h, read-out: GI
RXF 393 = assay: Cytotoxicity against human RXF393 cells at 10 uM after 48 hrs by SRB assay
SN12C = assay: Cytotoxicity against human SN12C cells at 10 uM after 48 hrs by SRB assay; conditions: read-out: GI
TK-10 = assay: Cytotoxicity against human TK10 cells at 10 uM after 48 hrs by SRB assay
[2] = Cytotoxicity against human UO31 cells at 10 uM after 48 hrs by SRB assay; conditions: UO-31, 48 h, read-out: GI
[3] = Cytotoxicity against human PC3 cells at 10 uM after 48 hrs by SRB assay; conditions: PC-3, 48 h, read-out: GI
DU-145 = assay: Cytotoxicity against human DU145 cells at 10 uM after 48 hrs by SRB assay
MCF7 = assay: Cytotoxicity against human MCF7 cells at 10 uM after 48 hrs by SRB assay; conditions: MCF7, 48 h, read-out: GI
MDA-MB-231 = assay: Cytotoxicity against human MDA-MB-231 cells at 10 uM after 48 hrs by SRB assay; conditions: MDA-MB-231, 48 h, read-out: GI
[4] = Cytotoxicity against human Hs 578T cells at 10 uM after 48 hrs by SRB assay; conditions: read-out: GI
[5] = Cytotoxicity against human BT549 cells at 10 uM after 48 hrs by SRB assay; conditions: BT-549, 48 h, read-out: GI
T47D = assay: Cytotoxicity against human T47D cells at 10 uM after 48 hrs by SRB assay; conditions: read-out: GI
MDA-MB-468 = assay: Cytotoxicity against human MDA-MB-468 cells at 10 uM after 48 hrs by SRB assay; conditions: MDA-MB-468, 48 h, read-out: GI
CCRF-CEM = assay: Cytotoxicity against human CCRF-CEM cells at 10 uM after 48 hrs by SRB assay; conditions: read-out: GI
HL-60(TB) = assay: Cytotoxicity against human HL-60(TB) cells at 10 uM after 48 hrs by SRB assay
K562 = assay: Cytotoxicity against human K562 cells at 10 uM after 48 hrs by SRB assay; conditions: K562, 48 h, read-out: GI
[6] = Cytotoxicity against human MOLT4 cells at 10 uM after 48 hrs by SRB assay; conditions: MOLT-4, 48 h, read-out: GI
[7] = Cytotoxicity against human RPMI8226 cells at 10 uM after 48 hrs by SRB assay; conditions: RPMI-8226, 48 h, read-out: GI
SR = assay: Cytotoxicity against human SR cells at 10 uM after 48 hrs by SRB assay; conditions: read-out: GI
A549 = assay: Cytotoxicity against human A549 cells at 10 uM after 48 hrs by SRB assay; conditions: A549, 48 h, read-out: GI
[8] = Cytotoxicity against human HOP62 cells at 10 uM after 48 hrs by SRB assay; conditions: HOP-62, 48 h, read-out: GI
[9] = Cytotoxicity against human HOP92 cells at 10 uM after 48 hrs by SRB assay; conditions: HOP-92, 48 h, read-out: GI
NCI-H226 = assay: Cytotoxicity against human NCI-H226 cells at 10 uM after 48 hrs by SRB assay; conditions: NCI-H226, 48 h, read-out: GI
NCI-H460 = assay: Cytotoxicity against human NCI-H460 cells at 10 uM after 48 hrs by SRB assay
NCI-H522 = assay: Cytotoxicity against human NCI-H522 cells at 10 uM after 48 hrs by SRB assay; conditions: NCI-H522, 48 h, read-out: GI
[10] = Cytotoxicity against human COLO205 cells at 10 uM after 48 hrs by SRB assay; conditions: COLO 205, 48 h, read-out: GI
HCC 2998 = assay: Cytotoxicity against human HCC2998 cells at 10 uM after 48 hrs by SRB assay
[11] = Cytotoxicity against human HCT116 cells at 10 uM after 48 hrs by SRB assay; conditions: HCT-116, 48 h, read-out: GI
[12] = Cytotoxicity against human HCT15 cells at 10 uM after 48 hrs by SRB assay; conditions: HCT-15, 48 h, read-out: GI
HT-29 = assay: Cytotoxicity against human HT-29 cells at 10 uM after 48 hrs by SRB assay; conditions: HT-29, 48 h, read-out: GI
KM12 = assay: Cytotoxicity against human KM12 cells at 10 uM after 48 hrs by SRB assay
[13] = Cytotoxicity against human SW620 cells at 10 uM after 48 hrs by SRB assay; conditions: SW-620, 48 h, read-out: GI
[14] = Cytotoxicity against human SF268 cells at 10 uM after 48 hrs by SRB assay; conditions: SF-268, 48 h, read-out: GI
[15] = Cytotoxicity against human SF295 cells at 10 uM after 48 hrs by SRB assay; conditions: SF-295, 48 h, read-out: GI
[16] = Cytotoxicity against human SF539 cells at 10 uM after 48 hrs by SRB assay; conditions: SF-539, 48 h, read-out: GI
[17] = Cytotoxicity against human SNB19 cells at 10 uM after 48 hrs by SRB assay; conditions: SNB-19, 48 h, read-out: GI
[18] = Cytotoxicity against human SNB75 cells at 10 uM after 48 hrs by SRB assay; conditions: SNB-75, 48 h, read-out: GI
U-251 = assay: Cytotoxicity against human U251 cells at 10 uM after 48 hrs by SRB assay
[19] = Cytotoxicity against human LOXIMVI cells at 10 uM after 48 hrs by SRB assay; conditions: LOX IMVI, read-out: GI
Malme-3M = assay: Cytotoxicity against human MALME-3M cells at 10 uM after 48 hrs by SRB assay
M14 = assay: Cytotoxicity against human M14 cells at 10 uM after 48 hrs by SRB assay
MDA-MB-435 = assay: Cytotoxicity against human MDA-MB-435 cells at 10 uM after 48 hrs by SRB assay; conditions: MDA-MB-435, 48 h, read-out: GI
SK-MEL-2 = assay: Cytotoxicity against human SK-MEL-2 cells at 10 uM after 48 hrs by SRB assay
SK-MEL-28 = assay: Cytotoxicity against human SK-MEL-28 cells at 10 uM after 48 hrs by SRB assay
SK-MEL-5 = assay: Cytotoxicity against human SK-MEL-5 cells at 10 uM after 48 hrs by SRB assay; conditions: SK-MEL-5, 48 h, read-out: GI
[20] = Cytotoxicity against human UACC257 cells at 10 uM after 48 hrs by SRB assay; conditions: UACC-257, 48 h, read-out: GI
[21] = Cytotoxicity against human UACC62 cells at 10 uM after 48 hrs by SRB assay; conditions: UACC-62, 48 h, read-out: GI
[22] = Cytotoxicity against human IGROV1 cells at 10 uM after 48 hrs by SRB assay; conditions: IGROV-1, 48 h, read-out: GI
[23] = Cytotoxicity against human OVCAR3 cells at 10 uM after 48 hrs by SRB assay; conditions: OVCAR-3, 48 h, read-out: GI
[24] = Cytotoxicity against human OVCAR4 cells at 10 uM after 48 hrs by SRB assay; conditions: OVCAR-4, 48 h, read-out: GI
[25] = Cytotoxicity against human OVCAR5 cells at 10 uM after 48 hrs by SRB assay; conditions: OVCAR-5, 48 h, read-out: GI
[26] = Cytotoxicity against human OVCAR8 cells at 10 uM after 48 hrs by SRB assay; conditions: OVCAR-8, 48 h, read-out: GI
[27] = Cytotoxicity against human NCI-ADR-RES cells at 10 uM after 48 hrs by SRB assay; conditions: read-out: GI
SK-OV-3 = assay: Cytotoxicity against human SKOV3 cells at 10 uM after 48 hrs by SRB assay
786-0 = assay: Cytotoxicity against human 786-0 cells at 10 uM after 48 hrs by SRB assay; conditions: 786-0, 48 h, read-out: GI
A498 = assay: Cytotoxicity against human A498 cells at 10 uM after 48 hrs by SRB assay; conditions: A498, 48 h, read-out: GI
ACHN = assay: Cytotoxicity against human ACHN cells at 10 uM after 48 hrs by SRB assay; conditions: read-out: GI

In the case of Cc1nc2cc(Nc3nc(Nc4ccc(F)cc4)nc(Nc4ccc(F)cc4)n3)ccc2n1Cc1ccccc1, the inhibition of growth at 10 µM [1] is reported as 10.1%, the “growth inhibition (GI)” value (RXF 393) is reported as “inactive” and the inhibition of growth at 10 µM (SN12C) is reported as 5.75%. For the same molecule, the “growth inhibition (GI)” value (TK-10) was “inactive”, the inhibition of growth at 10 µM [2] was 39.3% and the inhibition of growth at 10 µM [3] was 23.2%. The “growth inhibition (GI)” value (DU-145) was “inactive”, the inhibition of growth at 10 µM (MCF7) was 11.5% and the inhibition of growth at 10 µM (MDA-MB-231) was 24.5%. The inhibition of growth at 10 µM [4] was 10.4%, the inhibition of growth at 10 µM [5] was 5.26% and the inhibition of growth at 10 µM (T47D) was 10.7%. The inhibition of growth at 10 µM (MDA-MB-468) was 9.45%, the inhibition of growth at 10 µM (CCRF-CEM) was 10.6% and the “growth inhibition (GI)” value (HL-60(TB)) was “inactive”. For the same molecule, the inhibition of growth at 10 µM (K562) was 18.6%, the inhibition of growth at 10 µM [6] was 15.2% and the inhibition of growth at 10 µM [7] was 14.3%. The inhibition of growth at 10 µM (SR) was 18.6%, the inhibition of growth at 10 µM (A549) was 8.48% and the inhibition of growth at 10 µM [8] was 8.91%. For the same molecule, the inhibition of growth at 10 µM [9] was 37.6%, the inhibition of growth at 10 µM (NCI-H226) was 13.8% and the “growth inhibition (GI)” value (NCI-H460) was “inactive”. For the same molecule, the inhibition of growth at 10 µM (NCI-H522) was 14.2%, the inhibition of growth at 10 µM [10] was 2.84% and the “growth inhibition (GI)” value (HCC 2998) was “inactive”. The inhibition of growth at 10 µM [11] was 12.2%, the inhibition of growth at 10 µM [12] was 10.8% and the inhibition of growth at 10 µM (HT-29) was 1.3%. The “growth inhibition (GI)” value (KM12) was “inactive”, the inhibition of growth at 10 µM [13] was 3.96% and the inhibition of growth at 10 µM [14] was 3.68%. For the same molecule, the inhibition of growth at 10 µM [15] was 8.21%, the inhibition of growth at 10 µM [16] was 10.4% and the inhibition of growth at 10 µM [17] was 3.99%. For the same molecule, the inhibition of growth at 10 µM [18] was 24.8%, the “growth inhibition (GI)” value (U-251) was “inactive” and the inhibition of growth at 10 µM [19] was 7.8%. For the same molecule, the “growth inhibition (GI)” value (Malme-3M) was “inactive”, the “growth inhibition (GI)” value (M14) was “inactive” and the inhibition of growth at 10 µM (MDA-MB-435) was 0.94%. For the same molecule, the “growth inhibition (GI)” value (SK-MEL-2) was “inactive”, the “growth inhibition (GI)” value (SK-MEL-28) was “inactive” and the inhibition of growth at 10 µM (SK-MEL-5) was 1.09%. For the same molecule, the inhibition of growth at 10 µM [20] was 3.11%, the inhibition of growth at 10 µM [21] was 10.2% and the inhibition of growth at 10 µM [22] was 16.9%. For the same molecule, the inhibition of growth at 10 µM [23] was 4.79%, the inhibition of growth at 10 µM [24] was 14.4% and the inhibition of growth at 10 µM [25] was 4.24%. The inhibition of growth at 10 µM [26] was 9.21%, the inhibition of growth at 10 µM [27] was 10.6% and the “growth inhibition (GI)” value (SK-OV-3) was “inactive”. The inhibition of growth at 10 µM (786-0) was 13.2%, the inhibition of growth at 10 µM (A498) was 21.9% and the inhibition of growth at 10 µM (ACHN) was 7.88%.
